For two compounds, pest or weed control and plant injury results are on record in patent US12077503B2, “Substituted cyclic amides and their use as herbicides” (FMC CORPORATION, priority 2015, dated 2024).

Like-named read-outs stand apart in the source and are kept apart here.

Holding throughout (format): in vivo
In experiment [1] the test system is barnyardgrass (Echinochloa crus-galli). Briefly: Test A postemergence. Conditions: Echinochloa crus-galli, post-emergence, 240 h, postemergence; for pest or weed control at 125 g/ha: 125 g ai/ha. Summed up:
(§1)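 Ratings of 0 (no effect) to 100 (complete control) come from visual comparison with untreated controls roughly 10 d after treatment. Test chemicals, formulated in a non-phytotoxic solvent mixture with surfactant, were applied either as a preemergence directed soil spray on seeded soil or postemergence to one- to two-leaf plants 2 to 10 cm tall.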

In experiment [2] the test system is ryegrass, Italian (Italian ryegrass, Lolium multiflorum). The experiment can be described thus: Test A postemergence. Conditions: Lolium multiflorum, post-emergence, 240 h, postemergence; for pest or weed control at 125 g/ha: 125 g ai/ha. Summed up: as §1
Experiment [3] deals with giant foxtail (Setaria faberii). Briefly: Test A postemergence. Conditions: Setaria faberi, post-emergence, 240 h, postemergence; for pest or weed control at 125 g/ha: 125 g ai/ha. In short, it runs like this:
as §1

In experiment [4] the test system is ragweed (common ragweed, Ambrosia elatior). Briefly: Test A postemergence. Conditions: Ambrosia artemisiifolia, post-emergence, 240 h, postemergence; for pest or weed control at 125 g/ha: 125 g ai/ha. Summed up:
as §1

Experiment [5] concerns wheat (Triticum aestivum). Briefly: Test A postemergence. Conditions: Triticum aestivum, post-emergence, 240 h, postemergence; for plant injury at 125 g/ha: 125 g ai/ha. In short, it runs like this: as §1
The test system of the next experiment is Kochia (Kochia scoparia). Briefly: Test A postemergence. Conditions: Bassia scoparia, post-emergence, 240 h, postemergence; for pest or weed control at 125 g/ha: 125 g ai/ha. In short, it runs like this:
as §1

The test system of another experiment is corn (Zea mays). Briefly: Test A postemergence. Conditions: Zea mays, post-emergence, 240 h, postemergence; for plant injury at 125 g/ha: 125 g ai/ha. In short, it runs like this: as §1
Experiment [6] has as its system blackgrass (Alopecurus myosuroides). Briefly: Test A postemergence. Conditions: Alopecurus myosuroides, post-emergence, 240 h, postemergence; for pest or weed control at 125 g/ha: 125 g ai/ha. Summed up: as §1
Experiment [7] deals with pigweed (Amaranthus retroflexus). Briefly: Test A postemergence. Conditions: Amaranthus retroflexus, post-emergence, 240 h, postemergence; for pest or weed control at 125 g/ha: 125 g ai/ha. In short, it runs like this:
as §1

Experiment [8] relates to Galium (catchweed bedstraw, Galium aparine). Briefly: Test A postemergence. Conditions: Galium, post-emergence, 240 h, postemergence; for pest or weed control at 125 g/ha: 125 g ai/ha. In short, it runs like this: as §1
Experiment [9] concerns giant foxtail (Setaria faberii). The experiment can be described thus: Test A preemergence. Conditions: Setaria faberi, pre-emergence, 240 h; for pest or weed control at 125 g/ha: 125 g ai/ha; for pest or weed control at 500 g/ha: 500 g ai/ha. In short, it runs like this:
as §1

Experiment [10] has as its system barnyardgrass (Echinochloa crus-galli). The experiment can be described thus: Test B flooded paddy test. Conditions: Echinochloa crus-galli, 250 g ai/ha, Flood, read-out: Barnyardgrass plant response rating. Summed up:
(§2)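 Rating scale 0–100 (visual, vs untreated controls) after a 13–15 d greenhouse period; application to the flood layer, 3 cm above soil and maintained; plants at 2-leaf stage when treated.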

Experiment [11] concerns sedge, umbrella (small-flower umbrella sedge, Cyperus difformis). Briefly: Test B flooded paddy test. Conditions: Cyperus difformis, 250 g ai/ha, Flood, read-out: Sedge, Umbrella plant response rating. Summed up: as §2
The next experiment relates to rice (Oryra sativa). Briefly: Test B flooded paddy test. Conditions: Oryza sativa, 250 g ai/ha, Flood, read-out: Rice plant response rating. In short, it runs like this: as §2
The test system of experiment [12] is ducksalad (Heteranthera limosa). Briefly: Test B flooded paddy test. Conditions: Heteranthera limosa, 250 g ai/ha, Flood, read-out: Ducksalad plant response rating. In short, it runs like this:
as §2

The mark [13] stands for this setting: preemergence, 0 to 100 scale where 0 is no effect and 100 is complete control, read-out: Foxtail, Giant plant response rating.
The mark [14] stands for this setting: 0 to 100 scale where 0 is no effect and 100 is complete control.
Where [15] appears, read: scale of 0 to 100 where 0 is no effect and 100 is complete control.

For `CC(C)Oc1ccc([C@H]2CNC(=O)[C@@H]2C(=O)Nc2ccc(F)cc2F)cc1` [Compound 1137], the pest or weed control at 125 g/ha in [1] (visual injury on 0 to 100 scale (0 no effect, 100 complete control), approx. 10 d, read-out: Barnyardgrass plant response rating) was determined as 0%; in [2] (visual injury on 0 to 100 scale (0 no effect, 100 complete control), approx. 10 d, read-out: Ryegrass, Italian plant response rating), 0%; in experiment [3] (visual injury on 0 to 100 scale (0 no effect, 100 complete control), approx. 10 d, read-out: Foxtail, Giant plant response rating) it was 0%; in experiment [4] (visual injury on 0 to 100 scale (0 no effect, 100 complete control), approx. 10 d, read-out: Ragweed plant response rating), 0%; in the experiment on Kochia (Kochia scoparia) (visual injury on 0 to 100 scale (0 no effect, 100 complete control), approx. 10 d, read-out: Kochia plant response rating), 0%; in [6] (visual injury on 0 to 100 scale (0 no effect, 100 complete control), approx. 10 d, read-out: Blackgrass plant response rating), 0%. In addition, the pest or weed control at 125 g/ha in [7] (visual injury on 0 to 100 scale (0 no effect, 100 complete control), approx. 10 d, read-out: Pigweed plant response rating) amounted to 0%; in [8] (visual injury on 0 to 100 scale (0 no effect, 100 complete control), approx. 10 d, read-out: Galium plant response rating), 0%; in experiment [9] (preemergence, 0 to 100 scale where 0 is no effect and 100 is complete control, approx. 10 d, read-out: Foxtail, Giant plant response rating), 0%. Further, the pest or weed control at 500 g/ha in experiment [1] (500 g ai/ha, 0 to 100 scale, 0 is no effect, 100 is complete control, read-out: Barnyardgrass plant response rating) was found to be 0%; in [2] (500 g ai/ha, 0 to 100 scale, 0 is no effect, 100 is complete control, read-out: Ryegrass, Italian plant response rating), 0%; in experiment [3] (500 g ai/ha, 0 to 100 scale, 0 is no effect, 100 is complete control, read-out: Foxtail, Giant plant response rating), 0%; in experiment [4] (500 g ai/ha, 0 to 100 scale, 0 is no effect, 100 is complete control, read-out: Ragweed plant response rating), 0%; in the experiment with Kochia (Kochia scoparia) (500 g ai/ha, 0 to 100 scale, 0 is no effect, 100 is complete control, read-out: Kochia plant response rating), 0%; in experiment [6] (500 g ai/ha, 0 to 100 scale, 0 is no effect, 100 is complete control, read-out: Blackgrass plant response rating) it was 0%. For the same compound, the pest or weed control at 500 g/ha in [7] (500 g ai/ha, 0 to 100 scale, 0 is no effect, 100 is complete control, read-out: Pigweed plant response rating) stood at 0%; in [8] (500 g ai/ha, 0 to 100 scale, 0 is no effect, 100 is complete control, read-out: Galium plant response rating) it was 0%; in [9] (setting [13]), 0%. Besides, the plant injury at 125 g/ha was 0% in experiment [5] (visual injury on 0 to 100 scale (0 no effect, 100 complete control), approx. 10 d, read-out: Wheat plant response rating) and 0% with corn (Zea mays) (visual injury on 0 to 100 scale (0 no effect, 100 complete control), approx. 10 d, read-out: Corn plant response rating). Also, the plant injury at 500 g/ha amounted to 0% in experiment [5] (500 g ai/ha, 0 to 100 scale, 0 is no effect, 100 is complete control, read-out: Wheat plant response rating) and 0% in the experiment on corn (Zea mays) (500 g ai/ha, 0 to 100 scale, 0 is no effect, 100 is complete control, read-out: Corn plant response rating). Also, the pest or weed control at 250 g/ha (in experiment [10] (setting [14]); in experiment [11] (setting [14]); in the experiment with rice (Oryra sativa) (setting [14]); in [12] (setting [14])) was 0% in each case.
Regarding `CN1C[C@H](c2cc(F)c(C(F)(F)F)c(F)c2)[C@@H](C(=O)Nc2ccc(F)cc2F)C1=O` [Compound 901], the pest or weed control at 125 g/ha in [1] (visual injury rating after approximately 10 d, read-out: Barnyardgrass plant response rating (0 to 100 scale, 0 no effect, 100 complete control)) was 60%; in experiment [2] (visual injury rating after approximately 10 d, read-out: Ryegrass, Italian plant response rating (0 to 100 scale, 0 no effect, 100 complete control)), 0%; in experiment [3] (visual injury rating after approximately 10 d, read-out: Foxtail, Giant plant response rating (0 to 100 scale, 0 no effect, 100 complete control)) it was 90%; in experiment [4] (visual injury rating after approximately 10 d, read-out: Ragweed plant response rating (0 to 100 scale, 0 no effect, 100 complete control)), 0%; with Kochia (Kochia scoparia) (visual injury rating after approximately 10 d, read-out: Kochia plant response rating (0 to 100 scale, 0 no effect, 100 complete control)), 30%; in experiment [6] (visual injury rating after approximately 10 d, read-out: Blackgrass plant response rating (0 to 100 scale, 0 no effect, 100 complete control)), 20%. Also, the pest or weed control at 125 g/ha in experiment [7] (visual injury rating after approximately 10 d, read-out: Pigweed plant response rating (0 to 100 scale, 0 no effect, 100 complete control)) came out at 0%; in experiment [8] (visual injury rating after approximately 10 d, read-out: Galium plant response rating (0 to 100 scale, 0 no effect, 100 complete control)), 0%; in experiment [9] (setting [13]), 90%. The plant injury at 125 g/ha was determined as 20% in [5] (visual injury rating after approximately 10 d, read-out: Wheat plant response rating (0 to 100 scale, 0 no effect, 100 complete control)) and 40% in the experiment with corn (Zea mays) (visual injury rating after approximately 10 d, read-out: Corn plant response rating (0 to 100 scale, 0 no effect, 100 complete control)). In addition, the pest or weed control at 500 g/ha in experiment [9] (Preemergence, visual injury vs untreated controls after approximately 10 d, read-out: Foxtail, Giant plant response rating (0 to 100 scale where 0 is no effect and 100 is complete control)) was found to be 90%. The pest or weed control at 250 g/ha in experiment [10] (setting [15]) turned out to be 60%; in experiment [11] (setting [15]), 0%; in the experiment on rice (Oryra sativa) (setting [15]) it was 0%; in [12] (setting [15]) it was 60%.
